In experiment [1] the test system is AsPC-1 and PANC-1 cells. In words: Cell adhesion assay on collagen I matrix. As to conditions: pre-treatment 5 minutes, 10 μM 007-AM. The experiment is classed as cell-based. On the procedure:
FIG. 13 ESI-09 inhibits EPAC1-mediated adhesion of PDA cells on collagen I. AsPC-1 and PANC-1 cells were stimulated with vehicle or 10 μM 007-AM after treatment with the indicated concentrations of ESI-09 for 5 minutes. Bars represent mean±s.d.
It has been recently reported that EPAC1 is over-expressed in pancreatic adenocarcinoma (Lorenz et al. (2008) Pancreas 37: 102-103). However, the functional role of EPAC1 elevation in this neoplasm is not clear. The inventors sought to employ ESI-09 to determine the role of EPAC1 signaling in pancreatic cancer. […] In order to determine if the observed impact on cell migration is EPAC1 specific, the effect of suppressing EPAC1 expression on AsPC-1 and PANC-1 migration using RNAi was examined. […] To further determine how ESI-09 inhibits PDA cell migration and invasion, a cell adhesion assay was performed using a collagen I matrix. […] To determine the in vivo anti-metastatic effect of ESI-09, MIA PaCa-2 stably expressing luciferase were orthotopically implanted into the pancreas of athymic nude mice. The mice were randomly divided into two groups and treated with vehicle or ESI-09 (50 mg/kg per day, oral gavage), respectively. The growth and metastasis of the tumors were monitored by weekly bioluminescence imaging using the IVIS bioluminescence imaging system.

For experiment [2], the system named is CD4+CD25− (Tconv) proliferation in the presence Tregs. Description: In vitro Treg suppression assay of Tconv proliferation. The class given is cell-based, mice. The conditions noted are these: assay repeated in the presence of ESI-09; compared with Epac1 KO outcome. The source says:
The suppressive potency of WT and Epac1 KO Tregs was examined using an in vitro assay that examines CD4+CD25− (Tconv) proliferation in the presence Tregs. Epac1 KO Tconv and WT Tconv proliferated at the same rate when cultured alone. The addition of WT Tregs suppressed the proliferation of both cell populations to the same extent, while the addition of Epac1 KO Tregs suppressed the proliferation of Epac1 KO Tconv to a much lesser degree than it did WT Tconv's.

Experiment [3] concerns the target T1, EPAC1 (Homo sapiens, UniProt O95398).
T1 sequence (O95398 1-923): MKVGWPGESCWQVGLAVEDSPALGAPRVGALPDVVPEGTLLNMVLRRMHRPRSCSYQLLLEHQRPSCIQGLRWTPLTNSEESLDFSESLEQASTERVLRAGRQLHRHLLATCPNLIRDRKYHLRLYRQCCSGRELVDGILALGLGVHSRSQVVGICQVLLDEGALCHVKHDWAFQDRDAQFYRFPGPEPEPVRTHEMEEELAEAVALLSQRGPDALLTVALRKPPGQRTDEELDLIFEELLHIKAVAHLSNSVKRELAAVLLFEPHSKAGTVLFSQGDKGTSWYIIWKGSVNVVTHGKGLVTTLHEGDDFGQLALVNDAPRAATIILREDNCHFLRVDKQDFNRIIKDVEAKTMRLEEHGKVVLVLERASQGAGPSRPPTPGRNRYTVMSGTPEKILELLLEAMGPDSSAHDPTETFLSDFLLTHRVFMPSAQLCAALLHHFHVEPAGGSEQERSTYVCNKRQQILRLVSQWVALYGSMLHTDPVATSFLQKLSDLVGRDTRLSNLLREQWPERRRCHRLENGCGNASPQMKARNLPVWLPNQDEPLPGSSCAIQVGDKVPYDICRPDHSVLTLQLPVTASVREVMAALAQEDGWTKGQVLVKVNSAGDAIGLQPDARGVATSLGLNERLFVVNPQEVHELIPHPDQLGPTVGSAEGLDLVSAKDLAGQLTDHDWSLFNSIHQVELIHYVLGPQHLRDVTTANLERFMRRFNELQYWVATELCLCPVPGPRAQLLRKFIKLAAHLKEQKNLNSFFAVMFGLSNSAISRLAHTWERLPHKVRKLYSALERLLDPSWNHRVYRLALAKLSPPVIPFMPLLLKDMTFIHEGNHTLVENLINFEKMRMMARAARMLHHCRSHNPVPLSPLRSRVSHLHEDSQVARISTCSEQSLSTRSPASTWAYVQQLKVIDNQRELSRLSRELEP
In words: Phosphorylation of Akt in HEK293/EPAC1 cells. The class given is cell-based. The conditions noted are these: 10 μM for 5 min before 007-AM. On the procedure: FIG. 10. Effect of ESI-09 on EPAC-mediated PKB phosphorylation in HEK293/EPAC1, HEK293/EPAC2, and human vascular smooth muscle (hVSMC) cells. Serum-starved HEK293/EPAC1, HEK293/EPAC2, and hVSMC cells with or without pretreatment of […] ESI-09 were stimulated with 10 μM 007-AM. Cell lysates were subjected to Western blot analysis as described under “Experimental Procedures” using anti-phospho-Ser473-specific (PKB-P473) and anti-phospho-Thr308-specific (PKB-P308) PKB antibodies.
Cellular proteins from cell lysates treated with various reagents were separated by SDS-PAGE and transferred to polyvinylidene difluoride membrane. The levels of Akt activation were probed by immuno-blotting analyses using anti-phosphate T308 PKB antibodies (1:1000) and anti-phosphate S473 PKB antibodies (1:1000). At least three independent experiments were performed for each Western blot.

“Also recorded” adds a separate entry of the source.

On to `CC(C)(C)c1cc(C(=O)C(C#N)=NNc2cccc(Cl)c2)no1` [ESI-09, 3-(5-Tert-Butyl-Isoxazol-3-Yl)-2-[(3-Chlorophenyl)-Hydrazono]-3-Oxo-Propionitrile], for which the “007-AM induced cell adhesion” value in experiment [1] is “decreased 007-AM induced cell adhesion dose-dependently; also recorded: inhibits”. For the same molecule, in experiment [2], the “Tregs mediated suppression of Tconv” value was “the outcome was similar”. Besides, the “EPAC1-mediated Akt phosphorylation (T308 and S473)” value in experiment [3] is “completely blocked”.
